Measurements published in PubChem BioAssay (NCI).
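The compound was tested at five concentrations on cells cultured in 96-well plates, with a 48-hour exposure period. Abbreviation: GI50, concentration required for 50% inhibition of growth. TGI: total growth inhibition.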

Columns and labels:
Experiment in all cases: NCI tumour cell line growth inhibition, 48 h
786-0 renal = tested on: 786-0 renal
A498 renal = tested on: A498 renal
A549 NSCLC = tested on: A549 NSCLC
ACHN renal = tested on: ACHN renal
CCRF-CEM leukemia = tested on: CCRF-CEM leukemia
COLO 205 colon = tested on: COLO 205 colon
DU-145 prostate = tested on: DU-145 prostate
HCC-2998 colon = tested on: HCC-2998 colon
HCT-116 colon = tested on: HCT-116 colon
HCT-15 colon = tested on: HCT-15 colon
HL-60(TB) leukemia = tested on: HL-60(TB) leukemia
HOP-62 NSCLC = tested on: HOP-62 NSCLC
HOP-92 NSCLC = tested on: HOP-92 NSCLC
HT29 colon = tested on: HT29 colon
IGROV1 ovarian = tested on: IGROV1 ovarian
K-562 leukemia = tested on: K-562 leukemia
KM12 colon = tested on: KM12 colon
LOX IMVI melanoma = tested on: LOX IMVI melanoma
M14 melanoma = tested on: M14 melanoma
MALME-3M melanoma = tested on: MALME-3M melanoma
MDA-MB-231 breast = tested on: MDA-MB-231 breast
MDA-MB-435 = tested on: MDA-MB-435
MDA-N = tested on: MDA-N
MOLT-4 leukemia = tested on: MOLT-4 leukemia
NCI-H226 lung = tested on: NCI-H226 lung
NCI-H23 lung = tested on: NCI-H23 lung
NCI-H460 lung = tested on: NCI-H460 lung
NCI-H522 lung = tested on: NCI-H522 lung
NCI/ADR-RES ovarian = tested on: NCI/ADR-RES ovarian
OVCAR-3 ovarian = tested on: OVCAR-3 ovarian
OVCAR-4 ovarian = tested on: OVCAR-4 ovarian
OVCAR-5 ovarian = tested on: OVCAR-5 ovarian
OVCAR-8 ovarian = tested on: OVCAR-8 ovarian
PC-3 prostate = tested on: PC-3 prostate
RXF 393 renal = tested on: RXF 393 renal
SF-268 CNS = tested on: SF-268 CNS
SF-295 CNS = tested on: SF-295 CNS
SF-539 CNS = tested on: SF-539 CNS
SK-MEL-2 melanoma = tested on: SK-MEL-2 melanoma
SK-MEL-28 melanoma = tested on: SK-MEL-28 melanoma
SK-MEL-5 melanoma = tested on: SK-MEL-5 melanoma
SK-OV-3 ovarian = tested on: SK-OV-3 ovarian
SN12C renal = tested on: SN12C renal
SNB-19 CNS = tested on: SNB-19 CNS
SNB-75 CNS = tested on: SNB-75 CNS
SR leukemia = tested on: SR leukemia
T-47D breast = tested on: T-47D breast
TK-10 renal = tested on: TK-10 renal
U251 CNS = tested on: U251 CNS
UACC-257 melanoma = tested on: UACC-257 melanoma
UACC-62 melanoma = tested on: UACC-62 melanoma
UO-31 renal = tested on: UO-31 renal
BT-549 breast = tested on: BT-549 breast
CAKI-1 renal = tested on: CAKI-1 renal
EKVX NSCLC = tested on: EKVX NSCLC
HS 578T breast = tested on: HS 578T breast
MCF7 breast = tested on: MCF7 breast
RPMI-8226 leukemia = tested on: RPMI-8226 leukemia
SW-620 colon = tested on: SW-620 colon

CC(=O)c1c(-c2ccc(Cl)cc2)c(C#N)c(=S)n(C2OC(CO)C(O)C(O)C2O)c1C (stereo not drawn)
TGI (786-0 renal): > 100 µM
TGI (A498 renal): > 100 µM
TGI (A549 NSCLC): > 100 µM
TGI (ACHN renal): > 100 µM
TGI (CCRF-CEM leukemia): 63.7 µM
TGI (COLO 205 colon): 95.1 µM
TGI (DU-145 prostate): > 100 µM
TGI (HCC-2998 colon): > 100 µM
TGI (HCT-116 colon): > 100 µM
TGI (HCT-15 colon): > 100 µM
TGI (HL-60(TB) leukemia): 54 µM
TGI (HOP-62 NSCLC): > 100 µM
TGI (HOP-92 NSCLC): 65.6 µM
TGI (HT29 colon): > 100 µM
TGI (IGROV1 ovarian): > 100 µM
TGI (K-562 leukemia): > 100 µM
TGI (KM12 colon): > 100 µM
TGI (LOX IMVI melanoma): > 100 µM
TGI (M14 melanoma): > 100 µM
TGI (MALME-3M melanoma): > 100 µM
TGI (MDA-MB-231 breast): > 100 µM
TGI (MDA-MB-435): > 100 µM
TGI (MDA-N): 86.8 µM
TGI (MOLT-4 leukemia): 52.8 µM
TGI (NCI-H226 lung): > 100 µM
TGI (NCI-H23 lung): > 100 µM
TGI (NCI-H460 lung): > 100 µM
TGI (NCI-H522 lung): > 100 µM
TGI (NCI/ADR-RES ovarian): > 100 µM
TGI (OVCAR-3 ovarian): > 100 µM
TGI (OVCAR-4 ovarian): > 100 µM
TGI (OVCAR-5 ovarian): > 100 µM
TGI (OVCAR-8 ovarian): > 100 µM
TGI (PC-3 prostate): 99.3 µM
TGI (RXF 393 renal): > 100 µM
TGI (SF-268 CNS): > 100 µM
TGI (SF-295 CNS): > 100 µM
TGI (SF-539 CNS): > 100 µM
TGI (SK-MEL-2 melanoma): 84.5 µM
TGI (SK-MEL-28 melanoma): 87.6 µM
TGI (SK-MEL-5 melanoma): > 100 µM
TGI (SK-OV-3 ovarian): > 100 µM
TGI (SN12C renal): > 100 µM
TGI (SNB-19 CNS): 84.9 µM
TGI (SNB-75 CNS): > 100 µM
TGI (SR leukemia): 87.6 µM
TGI (T-47D breast): > 100 µM
TGI (TK-10 renal): > 100 µM
TGI (U251 CNS): > 100 µM
TGI (UACC-257 melanoma): > 100 µM
TGI (UACC-62 melanoma): 57.8 µM
TGI (UO-31 renal): 6.92 µM

CN(C)CCNC(=O)Nc1ccc(N(C)c2ccnc(Nc3ccc(CS(C)(=O)=O)cc3)n2)cc1
GI50 (786-0 renal): > 25 µM
TGI (786-0 renal): > 25 µM
GI50 (A498 renal): > 25 µM
TGI (A498 renal): > 25 µM
GI50 (A549 NSCLC): > 25 µM
TGI (A549 NSCLC): > 25 µM
GI50 (ACHN renal): > 25 µM
TGI (ACHN renal): > 25 µM
GI50 (BT-549 breast): > 25 µM
TGI (BT-549 breast): > 25 µM
GI50 (CAKI-1 renal): > 25 µM
TGI (CAKI-1 renal): > 25 µM
GI50 (CCRF-CEM leukemia): 16.5 µM
TGI (CCRF-CEM leukemia): > 25 µM
GI50 (COLO 205 colon): > 25 µM
TGI (COLO 205 colon): > 25 µM
GI50 (DU-145 prostate): > 25 µM
TGI (DU-145 prostate): > 25 µM
GI50 (EKVX NSCLC): > 25 µM
TGI (EKVX NSCLC): > 25 µM
GI50 (HCC-2998 colon): > 25 µM
TGI (HCC-2998 colon): > 25 µM
GI50 (HCT-116 colon): > 25 µM
TGI (HCT-116 colon): > 25 µM
GI50 (HCT-15 colon): > 25 µM
TGI (HCT-15 colon): > 25 µM
GI50 (HL-60(TB) leukemia): > 25 µM
TGI (HL-60(TB) leukemia): > 25 µM
GI50 (HOP-62 NSCLC): > 25 µM
TGI (HOP-62 NSCLC): > 25 µM
GI50 (HOP-92 NSCLC): 6.99 µM
TGI (HOP-92 NSCLC): > 25 µM
GI50 (HS 578T breast): > 19.8 µM
TGI (HS 578T breast): > 25 µM
GI50 (HT29 colon): > 25 µM
TGI (HT29 colon): > 25 µM
GI50 (IGROV1 ovarian): > 25 µM
TGI (IGROV1 ovarian): > 25 µM
GI50 (K-562 leukemia): > 25 µM
TGI (K-562 leukemia): > 25 µM
GI50 (KM12 colon): 9.88 µM
TGI (KM12 colon): > 25 µM
GI50 (LOX IMVI melanoma): > 25 µM
TGI (LOX IMVI melanoma): > 25 µM
GI50 (M14 melanoma): > 25 µM
TGI (M14 melanoma): > 25 µM
GI50 (MALME-3M melanoma): > 25 µM
TGI (MALME-3M melanoma): > 25 µM
GI50 (MCF7 breast): > 25 µM
TGI (MCF7 breast): > 25 µM
GI50 (MDA-MB-231 breast): > 25 µM
TGI (MDA-MB-231 breast): > 25 µM
GI50 (MDA-MB-435): > 25 µM
TGI (MDA-MB-435): > 25 µM
GI50 (MOLT-4 leukemia): > 25 µM
TGI (MOLT-4 leukemia): > 25 µM
GI50 (NCI-H226 lung): > 23.7 µM
TGI (NCI-H226 lung): > 25 µM
GI50 (NCI-H23 lung): > 25 µM
TGI (NCI-H23 lung): > 25 µM
GI50 (NCI-H460 lung): > 25 µM
TGI (NCI-H460 lung): > 25 µM
GI50 (NCI-H522 lung): > 16.9 µM
TGI (NCI-H522 lung): > 25 µM
GI50 (NCI/ADR-RES ovarian): > 25 µM
TGI (NCI/ADR-RES ovarian): > 25 µM
GI50 (OVCAR-3 ovarian): > 25 µM
TGI (OVCAR-3 ovarian): > 25 µM
GI50 (OVCAR-4 ovarian): > 25 µM
TGI (OVCAR-4 ovarian): > 25 µM
GI50 (OVCAR-5 ovarian): > 25 µM
TGI (OVCAR-5 ovarian): > 25 µM
GI50 (OVCAR-8 ovarian): > 25 µM
TGI (OVCAR-8 ovarian): > 25 µM
GI50 (PC-3 prostate): > 25 µM
TGI (PC-3 prostate): > 25 µM
GI50 (RPMI-8226 leukemia): > 25 µM
TGI (RPMI-8226 leukemia): > 25 µM
GI50 (RXF 393 renal): > 25 µM
TGI (RXF 393 renal): > 25 µM
GI50 (SF-268 CNS): > 25 µM
TGI (SF-268 CNS): > 25 µM
GI50 (SF-295 CNS): > 25 µM
TGI (SF-295 CNS): > 25 µM
GI50 (SF-539 CNS): > 20.9 µM
TGI (SF-539 CNS): > 25 µM
GI50 (SK-MEL-2 melanoma): > 25 µM
TGI (SK-MEL-2 melanoma): > 25 µM
GI50 (SK-MEL-28 melanoma): > 25 µM
TGI (SK-MEL-28 melanoma): > 25 µM
GI50 (SK-MEL-5 melanoma): > 25 µM
TGI (SK-MEL-5 melanoma): > 25 µM
GI50 (SK-OV-3 ovarian): > 25 µM
TGI (SK-OV-3 ovarian): > 25 µM
GI50 (SN12C renal): > 25 µM
TGI (SN12C renal): > 25 µM
GI50 (SNB-19 CNS): > 25 µM
TGI (SNB-19 CNS): > 25 µM
GI50 (SNB-75 CNS): > 12.7 µM
TGI (SNB-75 CNS): > 25 µM
GI50 (SR leukemia): 14.8 µM
TGI (SR leukemia): > 25 µM
GI50 (SW-620 colon): > 25 µM
TGI (SW-620 colon): > 25 µM
GI50 (T-47D breast): > 25 µM
TGI (T-47D breast): > 25 µM
GI50 (TK-10 renal): > 25 µM
TGI (TK-10 renal): > 25 µM
GI50 (U251 CNS): > 25 µM
TGI (U251 CNS): > 25 µM
GI50 (UACC-257 melanoma): > 25 µM
TGI (UACC-257 melanoma): > 25 µM
GI50 (UACC-62 melanoma): > 25 µM
TGI (UACC-62 melanoma): > 25 µM
GI50 (UO-31 renal): > 25 µM
TGI (UO-31 renal): > 25 µM
